Reference: PMC6522510 (Nature Communications, 2019)

Columns and labels:
Set-up in all cases: species or system AML cell lines (8); Primary HTS, single concentration about 10 uM, Cell Titer Glo viability; log10 luminescence, per cent inhibition relative to cycloheximide control
Details in all cases: 72 h, relative to cycloheximide control, log10 luminescence; inhibitor
[1] = test system: ML-2
[2] = test system: M07e
[3] = test system: MV4-11
[4] = test system: MOLM-13
[5] = test system: CMK
[6] = test system: CHRF288-11
[7] = test system: CMS
[8] = test system: U937

| Compound | ML-2 %inh [1] [%] | M07e %inh [2] [%] | MV4-11 %inh [3] [%] | MOLM-13 %inh [4] [%] | CMK %inh [5] [%] | CHRF288-11 %inh [6] [%] | CMS %inh [7] [%] | U937 %inh [8] [%] |
| --- | --- | --- | --- | --- | --- | --- | --- | --- |
| N#Cc1cccc(Nc2nccc(-c3cnn4ncccc34)n2)c1 [SJ000573330-1, U19339/96/3] | 56.71 | 113.8 | 85.56 | 98.39 | 106.6 | 55.56 | 104.6 | 80.06 |
| Nc1ncnc2occ(-c3ccc(NC(=O)Nc4cc(C(F)(F)F)cc(C(F)(F)F)c4)cc3)c12 [SJ000573331-1, T299/133/15] | 1.52 | 1.156 | 73.61 | 93.65 | 3.982 | 6.057 | 4.245 | 4.807 |
| CC(=O)Nc1cccc(C#Cc2cncnc2Nc2ccc(OCc3cccc(F)c3)c(Cl)c2)c1 [SJ000573332-1, U21935/99/1] | 1.213 | 1.101 | 0.9824 | 0.3704 | -0.8317 | 3.642 | 0.8612 | 4.462 |
| CCn1c(-c2nonc2N)nc2c(C#CC(C)(C)O)ncc(OC[C@@H]3CCCN3)c21 [SJ000573333-1, ML205742-149B0] | 7.469 | 9.925 | 16.86 | 74.82 | 15.2 | 13.49 | 14 | 42.79 |
| O=C(O[C@H]1CN[C@H](C#Cc2cc3ncnc(Nc4ccc(Cc5ccccc5)cc4)c3s2)C1)N1CCOCC1 [SJ000573334-1, U20046/184/1] | 11.25 | 4.781 | 4.189 | 61.51 | 86.74 | 4.257 | 1.486 | 2.636 |
| C[C@@H](Oc1cc(-n2cnc3ccc(OC[C@@H](O)CO)cc32)sc1C(N)=O)c1ccccc1Cl [SJ000573335-1, U22436/41/1] | 25.64 | 110.3 | 65.42 | 82.19 | 83.74 | 63.27 | 71.91 | 86.31 |
| Cc1ccc(NC(=O)c2ccnc(N3CCCC3)c2)cc1-c1ccc(C(=O)NCC2CC2)cc1 [SJ000573336-1, U23923/65/8] | -2.392 | -0.5333 | 1.019 | 2.702 | 0.1294 | -0.1983 | -0.7437 | 0.7829 |
| CCCN1CCCC(c2ccc(Nc3nc(Nc4cc(F)ccc4C(N)=O)c4cc[nH]c4n3)c(OC)c2)C1 (stereo not shown) [SJ000573337-1, U23441/128/1] | 69.05 | 41.75 | 85.37 | 102.6 | 49.26 | 108.4 | 31.15 | 43.81 |
| CCn1c(-c2nonc2N)nc2c(C#CC(C)(C)O)ncc(OCC3CCNCC3)c21 [SJ000573338-1, N3180-49-A1] | 1.732 | -1.564 | 8.685 | 4.413 | 1.889 | -0.2898 | 4.398 | 25.28 |
| CCn1c(-c2nonc2N)nc2c(C#CCN)ncc(OCCCN)c21 [SJ000573339-1, N3180-25-A1] | 0.8489 | -1.392 | 3.433 | 6.465 | 3.187 | 1.457 | 4.589 | 1.188 |
| CCn1c(-c2nonc2N)nc2c(C#CC(C)(C)O)ncc(OC3CCNCC3)c21 [SJ000573340-1, N2972-34-A1] | 4.911 | 6.128 | 14.73 | 25.8 | 1.4 | 8.441 | 5.982 | 50.59 |
| CCN(CC)Cc1ccc(Nc2nccc(-c3cnn4ncccc34)n2)cc1 [SJ000573341-1, U20497/10/4] | 56.99 | 122.1 | 77.95 | 89.9 | 90.23 | 61.01 | 102.8 | 77.76 |
| CCn1c(-c2nonc2N)nc2ccc(F)cc21 [SJ000573344-1, U17602/50/1] | -0.6145 | 1.126 | -0.453 | 3.561 | -0.9351 | 4.16 | -1.218 | -1.756 |
| O=C(NCC1CC1)c1ccc(-c2cccc(C(=O)NC3CC3)c2)cc1 [SJ000573345-1, R5419/155/1] | 0.3479 | 0.9268 | 3.005 | 4.094 | 6.153 | -1.419 | 0.2631 | 0.894 |
| Cc1ccc(C(=O)NC2CCCCC2)cc1-c1ccc(C(=O)NCC2CC2)cc1 [SJ000573346-1, R5311/184/6] | -1.695 | -0.328 | 6.399 | 6.287 | 5.045 | 2.896 | -0.3831 | 4.929 |
| Cc1ccc2c(-c3ccnc(Nc4ccc5c(c4)OCCO5)n3)c(-c3ccc(C(F)(F)F)cc3)nn2n1 [SJ000573347-1, U19201/9/2] | -1.284 | -1.129 | -1.366 | 1.079 | -1.247 | 4.555 | -0.8147 | 1.52 |
| FC(F)(F)CNc1nccc(-c2cnn3ncccc23)n1 [SJ000573348-1, U14929/198/1] | 3.221 | 2.938 | 26.7 | 10.23 | 5.414 | 8.25 | 9.976 | 21.18 |
| NC(=O)c1ccc2c(-c3ccnc(NCCCO)n3)c(-c3ccc(F)cc3)nn2c1 [SJ000573349-1, U15445/74/1] | 0.07673 | 8.993 | 0.006279 | 4.269 | 3.481 | 6.72 | -1.938 | 3.919 |
| CC(=O)Nc1cccc(C#Cc2cncnc2Nc2ccc(OCc3cccc(F)c3)c(Cl)c2)n1 [SJ000573352-1, U17741/29/4] | -1.648 | -1.039 | 2.175 | 1.614 | 2.98 | -2.536 | -3.127 | 0.4059 |
| CCc1ccc(Oc2nccc(-c3c(-c4ccc(F)cc4)ncn3C3CCNCC3)n2)cc1 [SJ000573353-1, JB42215-197B1] | 3.582 | 7.09 | 7.571 | 6.147 | 9.775 | 58.08 | 2.88 | 8.087 |
| Cc1cc(-c2ccccn2)cc(C)c1/C=C/c1cncc(-c2nn[nH]n2)c1 [SJ000573354-1, U12068/128/1] | -0.7476 | -1.071 | -0.7703 | 1.519 | 0.3268 | -4.309 | -3.491 | 1.124 |
| Nc1nonc1-c1nc2cnccc2n1C1CCCCC1 [SJ000573355-1, SD100950-004A1] | 31.12 | -4.008 | 40.98 | 7.234 | 8.293 | 15.53 | 13.87 | 17.92 |
| O=C1Nc2ccccc2/C1=C/Nc1ccc2[nH]c(=O)[nH]c2c1 [SJ000573356-1, U7003/61/1] | 0.9059 | 4.187 | 43.08 | 61.37 | 1.313 | 4.722 | 0.8831 | 2.265 |
